The values that follow come from publication PMC7146381, “Modulation of Adhesion Process, E-Selectin and VEGF Production by Anthocyanins and Their Metabolites in an In Vitro Model of Atherosclerosis” (Nutrients, 2020).

The test system of the series is HUVECs. Nature of the series: Cytotoxicity, Trypan blue assay on HUVECs. The class given is cell-based, Human. Conditions: positive control, HUVEC cells, data not shown; p < 0.0001 vs cells with and without TNF-α (99%). On the procedure:
The cytotoxicity of the compounds was tested by Trypan blue and (3-(4,5-dimethylthiazol-2-yl)-2, 5-diphenyltetrazolium bromide (MTT) assay on HUVECs, according to the manufacturer’s instructions. Triton X-100 was used as positive control. Two independent experiments were performed in which each compound and concentration was tested in quadruplicate.

In the case of Triton X-100 [reference compound], the “cell viability reduced up to” value was found to be 20%.
